Active and inactive are the calls of the source. No cut-off for these calls is given here.
Legend:
[1] = system: Plasmodium berghei; test: Effect on multidrug resistance protein-mediated Rhodamine 123 drug uptake in blood stage of Plasmodium berghei NK65 mitochondria infected ICR mice (Mus musculus) RBCs at 10 uM after 20 min by fluorescence microscopy
[2] = Drug uptake in blood stage of Plasmodium berghei NK65 nucleus infected ICR mice (Mus musculus) RBCs at 0.25 uM after 20 min using Rhodamine 123 by fluorescence microscopy; format: ADME, tissue-based
[3] = system: Plasmodium berghei; test: Antimalarial activity against Plasmodium berghei NK65 infected in mice (Mus musculus) assessed as reduction of parasitaemia at 40 mg/kg, subcutaneous daily for 3 days; format: functional; parameters: scale not given: the % may be the effect or the level left
[4] = system: Mus musculus; test: Drug uptake in Plasmodium berghei NK65 infected ICR mice (Mus musculus) RBCs at 40 mg/kg, subcutaneously qd for 3 days after 23 hrs; format: ADME, organism-based; parameters: dose 40 mg/kg, route subcutaneous; conditions: in vivo, sc
[5] = system: Plasmodium berghei; test: Antimalarial activity against Plasmodium berghei NK65 infected in mice (Mus musculus) assessed as reduction of parasitaemia at 40 mg/kg, subcutaneous after 23 hrs (reference value: 8.2 to 25.3 %); format: functional; parameters: scale not given: the % may be the effect or the level left
[6] = system: Plasmodium berghei; test: Drug uptake in ring stage of Plasmodium berghei NK65 infected in ICR mice (Mus musculus) RBCs at 10 nM after 20 min using Rhodamine 123 by fluorescence microscopy; format: ADME, organism-based; conditions: in vivo, 0.01 µM
[7] = system: Plasmodium berghei; test: Effect on multidrug resistance protein-mediated Rhodamine 123 drug uptake in blood stage of Plasmodium berghei NK65 mitochondria infected ICR mice (Mus musculus) RBCs at 10 nM after 20 min by fluorescence microscopy
[8] = Drug uptake in blood stage of Plasmodium berghei NK65 mitochondria infected ICR mice (Mus musculus) RBCs at 0.25 uM after 20 min using Rhodamine 123 by fluorescence microscopy; format: ADME
[9] = Drug uptake in blood stage of Plasmodium berghei NK65 infected ICR mice (Mus musculus) RBCs at 0.25 uM after 20 min using Rhodamine 123 by fluorescence microscopy; format: ADME, tissue-based; conditions: erythrocyte
[10] = system: Plasmodium berghei; test: Drug uptake in schizont stage of Plasmodium berghei NK65 infected in ICR mice (Mus musculus) RBCs at 10 nM after 20 min using Rhodamine 123 by fluorescence microscopy; format: ADME, organism-based; conditions: in vivo, 0.01 µM
[11] = system: Plasmodium berghei; test: Antimalarial activity against Plasmodium berghei NK65 infected in mice (Mus musculus) assessed as increase of mice (Mus musculus) survival days at 40 mg/kg, subcutaneous daily for 3 days measured up to 18 months; format: functional, organism-based; parameters: dose 40 mg/kg
[12] = system: Plasmodium berghei; test: Drug uptake in early trophozoite stage of Plasmodium berghei NK65 infected in ICR mice (Mus musculus) RBCs at 10 nM after 20 min using Rhodamine 123 by fluorescence microscopy; format: ADME, organism-based; conditions: in vivo, 0.01 µM
[13] = system: Plasmodium berghei; test: Drug uptake in late trophozoite stage of Plasmodium berghei NK65 infected in ICR mice (Mus musculus) RBCs at 10 nM after 20 min using Rhodamine 123 by fluorescence microscopy; format: ADME, organism-based; conditions: in vivo, 0.01 µM

Row | SMILES | Drug uptake [1] | Drug uptake [2] | Activity [3] | Drug uptake [4] | Activity [5] | Drug uptake [6] | Drug uptake [7] | Drug uptake [8] | Drug uptake [9] | Drug uptake [10] | Activity [11] | Drug uptake [12] | Drug uptake [13]
1 | N#CC(C#N)=NNc1cccc(Cl)c1 | inactive |  |  |  |  |  |  |  |  |  |  |  | 
2 | CCCCCC[C@H]1C(=O)O[C@H](C)[C@H](NC(=O)c2cccc(NC=O)c2O)C(=O)O[C@@H](C)[C@@H]1OC(=O)CC(C)C | inactive |  |  |  |  |  |  |  |  |  |  |  | 
3 | CCn1c(=O)/c(=C/C=c2\nc3c(o2)=CC=CN3C)s/c1=C\c1sc2ccccc2[n+]1C.[Cl-] |  | Active | 100% | Active | 10.8% | Active | Active | Active | Active | Active | Active | Active | Active

From ChEMBL document CHEMBL1287693, “Selective accumulation of a novel antimalarial rhodacyanine derivative, SSJ-127, in an organelle of Plasmodium berghei” (Bioorg Med Chem, 2010)
